Measured values taken from ChEMBL document CHEMBL5058643, “Data for DCP probe BI-2081” (2022).
Activity calls are given as the source filed them. The rule behind the calls is not given here.

Columns and labels:
[1] = target: D(4) dopamine receptor (Homo sapiens) (UniProt P21917); settings: Compound concentration 10.0 uM
[2] = target: Histamine H2 receptor (Homo sapiens) (UniProt P25021); experiment: H2/H Eurofins SafetyScreen44 (BI); settings: Compound concentration 10.0 uM
[3] = target: Free fatty acid receptor 1 (Homo sapiens, UniProt O14842); experiment: IPOne assay
[4] = target: Beta-1 adrenergic receptor (Homo sapiens) (UniProt P08588); settings: Compound concentration 10.0 uM
[5] = target: Gamma-aminobutyric acid receptor subunit alpha-1 (Rattus norvegicus) (UniProt P62813); experiment: GABAA MUSCIMOL CENT Eurofins SafetyScreen44 (BI); settings: Compound concentration 10.0 uM
[6] = target: Neuropeptide Y receptor type 2 (Homo sapiens) (UniProt P49146); experiment: Y2/HU Eurofins SafetyScreen44 (BI); settings: Compound concentration 10.0 uM
Chain of Neuropeptide Y receptor type 2 (Homo sapiens) (P49146 whole entry): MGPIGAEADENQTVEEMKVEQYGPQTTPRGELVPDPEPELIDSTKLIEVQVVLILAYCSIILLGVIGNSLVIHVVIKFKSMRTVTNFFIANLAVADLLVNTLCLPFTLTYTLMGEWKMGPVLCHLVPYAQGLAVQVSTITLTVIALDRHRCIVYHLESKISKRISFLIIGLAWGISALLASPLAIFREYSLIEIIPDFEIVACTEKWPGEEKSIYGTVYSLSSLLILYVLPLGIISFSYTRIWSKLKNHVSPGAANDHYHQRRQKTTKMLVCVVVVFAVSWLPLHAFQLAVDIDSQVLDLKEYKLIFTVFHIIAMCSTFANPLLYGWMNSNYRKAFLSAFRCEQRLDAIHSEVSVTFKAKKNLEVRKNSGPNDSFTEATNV

Chain of D(4) dopamine receptor (Homo sapiens) (P21917 whole entry): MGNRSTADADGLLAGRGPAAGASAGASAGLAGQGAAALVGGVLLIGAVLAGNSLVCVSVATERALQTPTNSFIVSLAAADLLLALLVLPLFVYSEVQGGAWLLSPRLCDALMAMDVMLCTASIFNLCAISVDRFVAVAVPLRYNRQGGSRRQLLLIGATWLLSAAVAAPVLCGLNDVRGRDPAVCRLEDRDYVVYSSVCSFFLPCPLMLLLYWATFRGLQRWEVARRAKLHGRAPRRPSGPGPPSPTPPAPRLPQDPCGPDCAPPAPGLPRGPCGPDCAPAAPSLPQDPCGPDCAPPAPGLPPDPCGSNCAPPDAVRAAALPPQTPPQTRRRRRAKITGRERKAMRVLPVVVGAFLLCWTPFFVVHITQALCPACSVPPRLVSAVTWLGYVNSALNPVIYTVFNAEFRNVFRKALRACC
Chain of Beta-1 adrenergic receptor (Homo sapiens) (P08588 whole entry, looked up): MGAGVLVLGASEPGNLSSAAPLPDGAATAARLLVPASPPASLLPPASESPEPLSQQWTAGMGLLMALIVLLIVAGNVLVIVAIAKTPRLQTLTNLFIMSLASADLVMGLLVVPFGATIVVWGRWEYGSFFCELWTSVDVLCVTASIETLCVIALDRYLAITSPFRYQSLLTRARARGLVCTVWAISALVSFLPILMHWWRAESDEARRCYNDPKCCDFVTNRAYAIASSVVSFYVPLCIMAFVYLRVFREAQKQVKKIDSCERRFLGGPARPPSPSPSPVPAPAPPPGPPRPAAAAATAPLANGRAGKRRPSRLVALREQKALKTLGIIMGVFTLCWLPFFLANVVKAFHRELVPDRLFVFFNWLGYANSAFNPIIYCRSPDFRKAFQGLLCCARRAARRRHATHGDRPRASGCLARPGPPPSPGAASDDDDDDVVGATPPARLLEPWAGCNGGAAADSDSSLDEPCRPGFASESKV
Chain of Histamine H2 receptor (Homo sapiens) (P25021 whole entry): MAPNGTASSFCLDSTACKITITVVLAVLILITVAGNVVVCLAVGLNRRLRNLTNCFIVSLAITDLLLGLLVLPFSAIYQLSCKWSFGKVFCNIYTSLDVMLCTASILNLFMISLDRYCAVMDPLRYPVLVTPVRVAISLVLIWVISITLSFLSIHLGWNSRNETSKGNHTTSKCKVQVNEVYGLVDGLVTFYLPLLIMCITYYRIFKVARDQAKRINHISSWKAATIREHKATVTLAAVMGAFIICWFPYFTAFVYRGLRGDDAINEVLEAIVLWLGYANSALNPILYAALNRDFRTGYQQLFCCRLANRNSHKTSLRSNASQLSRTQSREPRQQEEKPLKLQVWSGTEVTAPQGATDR
Chain of Gamma-aminobutyric acid receptor subunit alpha-1 (Rattus norvegicus) (P62813 whole entry): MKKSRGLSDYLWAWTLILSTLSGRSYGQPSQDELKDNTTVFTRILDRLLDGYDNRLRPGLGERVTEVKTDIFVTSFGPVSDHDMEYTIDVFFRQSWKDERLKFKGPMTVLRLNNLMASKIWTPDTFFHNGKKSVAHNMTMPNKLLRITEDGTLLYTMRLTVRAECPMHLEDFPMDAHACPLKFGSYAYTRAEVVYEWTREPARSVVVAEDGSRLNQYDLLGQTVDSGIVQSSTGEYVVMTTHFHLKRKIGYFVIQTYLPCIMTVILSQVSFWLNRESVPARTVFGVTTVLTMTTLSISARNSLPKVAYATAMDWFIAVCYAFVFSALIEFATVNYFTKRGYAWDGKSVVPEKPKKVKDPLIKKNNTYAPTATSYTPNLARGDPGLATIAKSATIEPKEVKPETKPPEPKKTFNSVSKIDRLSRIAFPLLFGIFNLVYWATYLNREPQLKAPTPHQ
Chain of Free fatty acid receptor 1 (O14842 whole entry): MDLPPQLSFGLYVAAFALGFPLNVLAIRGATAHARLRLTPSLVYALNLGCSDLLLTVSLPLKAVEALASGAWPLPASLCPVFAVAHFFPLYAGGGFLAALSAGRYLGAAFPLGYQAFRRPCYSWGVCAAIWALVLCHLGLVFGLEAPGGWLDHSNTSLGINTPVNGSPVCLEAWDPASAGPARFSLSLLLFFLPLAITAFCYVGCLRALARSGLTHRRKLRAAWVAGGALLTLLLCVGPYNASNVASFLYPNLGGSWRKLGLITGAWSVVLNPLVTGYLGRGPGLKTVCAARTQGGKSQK

| Structure (SMILES) | inhibition [1] | residual activity [2] | EC50 [3] | inhibition [4] | residual activity [5] | residual activity [6] |
| --- | --- | --- | --- | --- | --- | --- |
| COCCCS(=O)(=O)c1cc(C)c(-c2ccc(F)c3c2CC[C@H]3Oc2ccc3c(c2)OC[C@H]3CC(=O)O)c(C)c1 | 12.9% |  |  |  |  |  |
| Cc1cc(OCCC(C)(C)O)cc(C)c1-c1ccc(F)c2c1CC[C@H]2Oc1ccc2c(c1)OC[C@H]2CC(=O)O |  | 95% | 3 nM (active) | 4.62% | 87% | 99% |
